Patent publication US8835440B2, “Cyclic pyrimidin-4-carboxamides as CCR2 receptor antagonists for treatment of inflammation, asthma and COPD” (Boehringer Ingelheim International GmbH, priority 2008, dated 2014)

Biological target: T1, CCR2 (Homo sapiens, UniProt P41597)
T1 construct: Membranes were prepared from THP-1 cells; endogenous in cells; host or cells: THP-1 cells (membrane preparation)
T1 sequence (P41597 1-360 isoform P41597-2): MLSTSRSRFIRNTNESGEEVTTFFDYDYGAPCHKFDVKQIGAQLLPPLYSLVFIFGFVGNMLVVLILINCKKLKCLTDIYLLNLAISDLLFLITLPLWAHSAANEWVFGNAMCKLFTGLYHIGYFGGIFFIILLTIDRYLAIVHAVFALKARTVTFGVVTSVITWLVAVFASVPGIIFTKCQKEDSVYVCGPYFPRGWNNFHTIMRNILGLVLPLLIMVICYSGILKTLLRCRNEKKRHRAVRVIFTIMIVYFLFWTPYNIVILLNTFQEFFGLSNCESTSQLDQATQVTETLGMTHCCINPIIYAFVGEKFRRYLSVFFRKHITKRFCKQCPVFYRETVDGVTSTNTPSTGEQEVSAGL
Experiment: CCR2 receptor membrane binding assay ([125I]MCP-1, THP-1 cell membranes, SPA beads)
Details: for remaining activity at 10 µM: @ 10 μM test compound, THP-1 membranes, read-out: CCR2 % ctrl @ 10 μM; for Ki: dissociation constant hKi, [125I]MCP-1 binding to THP-1 membranes
Outline: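 Human THP-1 monocytic cell membranes, pre-coupled to WGA-PVT SPA beads, were incubated with compound and [125I]MCP-1 (ca. 25000 cpm) in 25 mM HEPES pH 7.2, 5 mM MgCl2, 0.5 mM CaCl2, 0.2% BSA, at 1% DMSO final. Bound radioactivity was counted after 8 h, and Ki was obtained by iterative mass-action fitting.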

| Structure (SMILES) | remaining activity at 10 µM [%] | Ki [µM] |
| --- | --- | --- |
| Cc1c(NCCc2ccc(Cl)c(Cl)c2)ncnc1C(=O)N1CCC(N2CCOC(C)C2)CC1 (stereo not drawn) [Example 237] | 9 | 0.133 |
| Cc1c(NCCc2ccc(Cl)c(Cl)c2)ncnc1C(=O)N1CCC(N2CCC(O)C2)CC1 (stereo not drawn) [Example 241] | 21 | 0.522 |
| Cc1c(NCc2ccc(Cl)c(Cl)c2)ncnc1C(=O)N1CCC(N2CCC(F)(F)CC2)CC1 [Example 244] | 24 | 0.366 |
| Cc1c(NCCc2ccc(Cl)c(Cl)c2)ncnc1C(=O)N1CCC(N2CC[C@@H](O)[C@@H](O)C2)CC1 [Example 246] | 2 | 0.306 |
| Cc1c(NCCc2ccc(Cl)c(Cl)c2)ncnc1C(=O)N1CCC(N2CCCC(O)CC2)CC1 (stereo not drawn) [Example 247] | 6 | 0.149 |
| CNC(=O)C1CCN(C2CCN(C(=O)c3nc(C)nc(NCc4ccc(C(C)(C)C)cc4)c3C)CC2)CC1 [Example 248] | 17 |  |
| Cc1c(NCc2ccc(C(C)(C)C)cc2)ncnc1C(=O)N1CCC(N2CCCCC2)C1 (stereo not drawn) [Example 250] | 32 | 1.26 |
| Cc1c(NCc2ccc(C(C)(C)C)cc2)ncnc1C(=O)N1CCC(N2CCCC2)C1 (stereo not drawn) [Example 251] | 75 | 0.439 |
| Cc1c(NCCc2ccc(Cl)c(Cl)c2)ncnc1C(=O)N1CCC(C(N)=O)(N2CCCCC2)CC1 [Example 252] | 6 | 0.038 |
| Cc1c(NCCc2ccc(Cl)c(Cl)c2)ncnc1C(=O)N1CCC(N2CCCC2)CC1 [Example 253] | 17 | 0.35 |
| Cc1c(NCc2ccc(Cl)c(Cl)c2)ncnc1C(=O)N1CCC(N2CC[C@H](C(N)=O)C2)CC1 [Example 256] | 25 | 0.438 |
| CNC(=O)[C@H]1CCN(C2CCN(C(=O)c3ncnc(NCc4ccc(Cl)c(Cl)c4)c3C)CC2)C1 [Example 257] | 14 | 0.186 |
| Cc1c(NCc2ccc(Cl)c(Cl)c2)ncnc1C(=O)N1CCC(N2CC[C@H](NS(C)(=O)=O)C2)CC1 [Example 258] | 4 | 0.064 |
| Cc1c(NCc2ccc(Cl)c(Cl)c2)ncnc1C(=O)N1CCC(N2CC[C@@H](NS(C)(=O)=O)C2)CC1 [Example 259] | 16 | 0.277 |
| CNC(=O)[C@@H]1CCN(C2CCN(C(=O)c3ncnc(NCc4ccc(Cl)c(Cl)c4)c3C)CC2)C1 [Example 260] | 20 | 0.493 |
| CNS(=O)(=O)C1CCN(C2CCN(C(=O)c3nc(C)nc(NCc4ccc(C(C)(C)C)cc4)c3C)CC2)CC1 [Example 262] | 13 | 0.224 |
| COC1CN(C(=O)c2ncnc(NCc3ccc(C(C)(C)C)cc3)c2C)CCC1N1CCC(N(C)S(C)(=O)=O)CC1 (stereo not drawn) [Example 263] | 27 | 1.97 |
| Cc1nc(NCc2ccc(C(C)(C)C)cc2)c(C)c(C(=O)N2CCC(N3CC[C@@H](C(N)=O)C3)CC2)n1 [Example 267] | 20 | 0.487 |
| Cc1c(/C=C/c2ccc(C(C)(C)C)cc2)ncnc1C(=O)N1CCC(N2CCOCC2)CC1 [Example 271] | 15 | 1.61 |
| Cc1c(CCc2ccc(C(C)(C)C)cc2)ncnc1C(=O)N1CCC(N2CCC(N(C)S(C)(=O)=O)CC2)CC1 [Example 272] | 8 | 0.155 |
| Cc1c(C(=O)N2CCC(N3CCC(NS(C)(=O)=O)CC3)CC2)ccnc1NCc1ccc(Cl)c(Cl)c1 [Example 274] | 48 | 4.42 |
| Cc1c(C(=O)N2CCC(N3CCC(O)CC3)CC2)ccnc1NCc1ccc(Cl)c(Cl)c1 [Example 275] | 19 | 0.593 |
| Cc1c(NCc2ccc(C(C)(C)C)cc2)ncnc1C(=O)N1CCC(N(C)C2CCOCC2)CC1 [Example 275a] | 0 | 0.029 |
| COC1COCCC1N(C)C1CCN(C(=O)c2ncnc(NCc3ccc(C(C)(C)C)cc3)c2C)CC1 (stereo not drawn) [Example 275b] | 3 | 0.026 |
| Cc1c(NCc2ccc(C(C)(C)C)cc2)ncnc1C(=O)N1CCC(N(C)C2CC(C)OC(C)C2)CC1 (stereo not drawn) [Example 275c] | 38 | 2.93 |
| Cc1c(NCc2ccc(C(C)(C)C)cc2)ncnc1C(=O)N1CCC(N(C)C2CCC(F)(F)CC2)CC1 [Example 275d] | 10 | 0.318 |
| CO[C@@H]1COCC[C@@H]1NC1CCN(C(=O)c2ncnc(NC[C@H]3CCC[C@@H](c4ccc(C)o4)C3)c2C)CC1 [Example 275da] |  | 0.004 |

Second part, the compound after the results:

| remaining activity at 10 µM [%] | Ki [µM] | Structure (SMILES) |
| --- | --- | --- |
| 19 | 0.401 | Cc1c(NCc2cccc(-c3ccccc3)c2)ncnc1C(=O)N1CCC(N2CCOC(C)C2)CC1 (stereo not drawn) [Example 234] |
| 26 | 0.46 | Cc1c(NCc2ccc(Cl)c(Cl)c2)ncnc1C(=O)N1CCC(N2CCCCCC2)CC1 [Example 235] |
| 14 | 0.175 | Cc1c(NCc2cccc(-c3ccccc3)c2)ncnc1C(=O)N1CCC(N2CCC(N(C)C)CC2)CC1 [Example 236] |
| 14 | 0.239 | Cc1c(NCc2ccc(Cl)c(Cl)c2)ncnc1C(=O)N1CCC(N2CCC(O)C2)CC1 (stereo not drawn) [Example 238] |
| 33 | 2.32 | Cc1c(NCc2cccc(-c3ccccc3)c2)ncnc1C(=O)N1CCC(N2CCC(O)C2)CC1 (stereo not drawn) [Example 239] |
| 7 | 0.104 | Cc1c(NCCc2ccc(Cl)c(Cl)c2)ncnc1C(=O)N1CCC(N2CCOC(c3ccccc3)C2)CC1 (stereo not drawn) [Example 240] |
| 21 | 0.516 | Cc1c(NCc2ccc(Cl)c(Cl)c2)ncnc1C(=O)N1CCC(N2CCCOCC2)CC1 [Example 242] |
| 40 | 1.61 | Cc1c(NCc2cccc(-c3ccccc3)c2)ncnc1C(=O)N1CCC(N2CCCOCC2)CC1 [Example 243] |
| 15 | 0.555 | Cc1c(NCc2ccc(Cl)c(Cl)c2)ncnc1C(=O)N1CCC(N2CCCC(O)CC2)CC1 (stereo not drawn) [Example 245] |
| 36 | 3.25 | CN(C1CCN(C2CCN(C(=O)c3ncnc(NCc4ccc(C(C)(C)C)cc4)c3C#N)CC2)CC1)S(C)(=O)=O [Example 249] |
| 11 | 0.101 | CNS(=O)(=O)C1CCN(C2CCN(C(=O)c3ncnc(NCc4ccc(Cl)c(Cl)c4)c3C)CC2)CC1 [Example 254] |
| 5 | 0.033 | Cc1c(NCc2ccc(Cl)c(Cl)c2)ncnc1C(=O)N1CCC(N2CCC(N(C)S(C)(=O)=O)CC2)CC1 [Example 255] |
| 8 | 0.12 | CNC(=O)C1CCN(C2CCN(C(=O)c3ncnc(NCc4ccc(C(C)(C)C)cc4)c3C)CC2)CC1 [Example 261] |
| 3 | 0.041 | CCS(=O)(=O)NC1CCN(C2CCN(C(=O)c3ncnc(NCc4ccc(C(C)(C)C)cc4)c3C)CC2)CC1 [Example 264] |
| 23 | 0.462 | Cc1c(NCc2ccc(C(C)(C)C)cc2)ncnc1C(=O)N1CCC(N2CC[C@@H](C(N)=O)C2)CC1 [Example 265] |
| 5 | 0.119 | Cc1c(Cc2ccc(C(C)(C)C)cc2)ncnc1C(=O)N1CCC(N2CCC(N(C)S(C)(=O)=O)CC2)CC1 [Example 268] |
